Measured values taken from US8716242B2, “β-hairpin peptidomimetics” (priority 2009, dated 2014).
Numbered stars: 1 amine (or outer) side, 2 acyl side, 3 side chain; on linkers, the order of the positions; unused ones are H or OH. Bridge positions count the residues as written; N and C are the ends. Square brackets hold non-standard residues; d marks the D form. Side chains are listed from the residue outwards. Peptide text beside a SMILES is read from it. * marks the point of attachment. γGlu = O=C(O)[C@H](CCC(=O)[*:2])N[*:1]; Palmitoyl = CCCCCCCCCCCCCCCC(=O)*; Lauroyl = CCCCCCCCCCCC(=O)*; Dab = NCC[C@H](N)C(=O)O

Key:
[1] = Plasma stability in mouse plasma; assay type: in vitro ADME; conditions: mouse plasma, 37° C.; for remaining at 24 h, 10 μM: 1440 min, read-out: mouse pl. cpd left at 1440 min; for mouse pl. T1/2: up to 1440 min
Procedure, shortened: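 Peptides (1 mM DMSO/H2O stock) were spiked into human or mouse plasma in triplicate and incubated at 37 °C, sampling from 0 to 1440 min. Samples were quenched in formic acid/acetonitrile and analysed by LC/MS MRM. Remaining percent of t=0 was calculated and T1/2 derived by trend fitting.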

in vivo = experiment: in vivo; set-up: species or system male CD-1 mice; conditions: for AUC0-∞ dcor. / Cmax dcor.: mouse
Method: 2.7. Pharmacokinetic Study (PK)
Pharmacokinetic study after intravenous (i.v.) and subcutaneous (s.c.) administration was performed for the compounds of Ex. 17, Ex. 20, Ex. 25, Ex. 26, Ex. 28, and Ex. 29. […] The compounds of Ex. 17, Ex. 25, Ex. 26, Ex. 28, and Ex. 29 were administered i.v. and s.c. as a cassette whereas for the compound of Ex. 20a single i.v. and s.c. administration was accomplished.
30 grams (±20%) male CD-1 mice obtained from Janvier, France, were used in the study testing the cassette compounds. The vehicle, phosphate buffered saline containing 5% DMSO, was added to give a final concentration of 0.5 mg/mL of the compounds (i.v. route and s.c. route). The volume was 2 mL/kg i.v. and 10 mL/kg s.c. and the cassette compounds were injected to give a final intravenous dose of 1 mg/kg and an subcutaneous dose of 5 mg/kg. Approximately 500 μL of blood were removed from the opened heart at predetermined time intervals (5, 15, 30 min and 1, 2, 4, 8 and 12 hours for the i.v. study and 5, 15, 30 min and 1, 2, 4, 8, 12 and 24 hours for the s.c. study) and added to heparinized tubes. Plasma was removed from pelleted cells upon centrifugation and frozen at −80° C. prior to HPLC-MS analysis. For the compound of Ex. 20 30 grams (±20%) male CD-1 mice obtained from Charles River Laboratories Deutschland GmbH were used. The vehicle, phosphate buffered saline, was added to give a final concentration of 0.2 mg/mL of the compound (i.v. route) and 1 mg/mL (s.c. route). The volume was 5 mL/kg i.v. and s.c. and the compound was injected to give a final intravenous dose of 1 mg/kg and an subcutaneous dose of 5 mg/kg. Approximately 300-400 μL of blood was removed under light isoflurane anesthesia by cardiac puncture at predetermined time intervals (5, 15, 30 min and 1, 2, 3, 4, 6, 12 hours for the i.v. study and 15, min and 1, 2, 4, 6, 8, 12 and 24 hours for the s.c. study) and added to heparinized tubes. Plasma was removed from pelleted cells upon centrifugation and frozen at −80° C. prior to HPLC-MS analysis.
Preparation of the Plasma Calibration Samples
“Blank” mouse plasma from untreated animals was used. Aliquots of plasma of 0.2 mL each were spiked with 50 ng of propranolol (Internal Standard, IS), (sample preparation by solid phase extraction on OASIS® HLB cartridges [Waters]) and with known amounts of Ex. 20 in order to obtain 9 plasma calibration samples in the range 10-5000 nM. The OASIS® HLB cartridges were conditioned with 1 mL of methanol and then with 1 mL of 1% NH3 in water. Samples were then diluted with 700 μL of 1% NH3 in water and loaded. The plate was washed with 1 mL of methanol/1% NH3 in water 5/95 (v/v). Elution was performed using 1 mL of 0.1% TFA in methanol.
The plate containing eluates was introduced into the concentrator system and taken to dryness. The residues were dissolved in 100 μL of formic acid 0.1%/acetonitrile, 95/5 (v/v) and analysed in the HPLC/MS on a reverse phase analytical column (Jupiter C18, 50×2.0 mm, 5 μm, Phenomenex), using gradient elution (mobile phases A: 0.1% formic acid in water, B: acetonitrile; from 5% B to 100% B in 2 min.).
Preparation of Plasma Samples
Samples coming from animal treatments were pooled in order to obtain an appropriate volume for the extraction. If the total volume obtained was less than 0.2 mL the appropriate amount of “blank” mouse plasma was added in order to keep the matrix identical to the calibration curve. Samples were than spiked with IS and processed as described for the calibration curve.
Pharmacokinetic Evaluation
In order to perform PK analysis pooled plasma data (n=3 mice) was used. PK parameters were calculated by WinNonLin™ software version 5.2.1 (Pharsight—A Certara™ Company, Mountain View, Calif. 94041 USA) using non-compartmental analysis with a linear up/log down trapezoidal calculation method. For the terminal elimination phase at least 3 time points and a correlation coefficient greater than 0.85 was used. […]

Row | SMILES | remaining at 24 h, 10 μM [1] | mouse pl. T1/2 [1] | bioavailability (in vivo; male, CD-1, mouse) | AUC(0-inf) (in vivo; male, CD-1, mouse, iv, 1 mg/kg) | Cmax (in vivo; male, CD-1, mouse, iv, 1 mg/kg) | Tmax (in vivo; male, CD-1, mouse, iv, 1 mg/kg) | half-life (in vivo; male, CD-1, mouse, iv, 1 mg/kg) | level at 0.083 h (in vivo; male, CD-1, mouse, iv, 1 mg/kg) | level at 0.25 h (in vivo; male, CD-1, mouse, iv, 1 mg/kg) | level at 0.5 h (in vivo; male, CD-1, mouse, iv, 1 mg/kg) | level at 1 h (in vivo; male, CD-1, mouse, iv, 1 mg/kg) | level at 2 h (in vivo; male, CD-1, mouse, iv, 1 mg/kg) | level at 4 h (in vivo; male, CD-1, mouse, iv, 1 mg/kg) | level at 12 h (in vivo; male, CD-1, mouse, iv, 1 mg/kg) | AUC(0-inf) (in vivo; male, CD-1, mouse, sc, 5 mg/kg) | Cmax (in vivo; male, CD-1, mouse, sc, 5 mg/kg) | Tmax (in vivo; male, CD-1, mouse, sc, 5 mg/kg) | half-life (in vivo; male, CD-1, mouse, sc, 5 mg/kg) | level at 0.5 h (in vivo; male, CD-1, mouse, sc, 5 mg/kg) | level at 1 h (in vivo; male, CD-1, mouse, sc, 5 mg/kg) | further results
1 | CCCCCCCCCCCC(=O)N[C@@H](CCC(=O)NCCCC[C@@H]1NC(=O)[C@H](Cc2ccc(O)cc2)NC(=O)[C@@H]2CSSC[C@H](NC(=O)[C@H](Cc3ccc(O)cc3)NC(=O)[C@H](Cc3c[nH]cn3)NC(=O)[C@H](Cc3ccc(O)cc3)NC(=O)[C@@H]3CCCN3C(=O)[C@H]3CCCN3C(=O)[C@H](CCCCN)NC1=O)C(=O)N[C@@H](CO)C(=O)N[C@@H](C)C(=O)N1CCC[C@@H]1C(=O)N[C@@H](CCN)C(=O)N[C@@H](CCCNC(=N)N)C(=O)N[C@@H](Cc1ccc(O)cc1)C(=O)N2)C(=O)O [Ex. 25] (cyclo(YHYCSA[dP][Dab]RYCYK([γGlu-Lauroyl])K[dP]P); disulfide 4-11) | 74% | 24 h | 142% | 3480 ng·h/mL | 2970 ng/mL | 0.1 h | 2.5 h | 2970 ng/mL | 2190 ng/mL | 1990 ng/mL | 1600 ng/mL | 160 ng/mL | 180 ng/mL | 16 ng/mL | 24700 ng·h/mL | 2190 ng/mL | 2 h | 4.7 h | 205 ng/mL | 517 ng/mL | level at 8 h (in vivo; male, CD-1, mouse, iv, 1 mg/kg): 18 ng/mL; level at 0.25 h (in vivo; male, CD-1, mouse, sc, 5 mg/kg): 44 ng/mL; level at 2 h (in vivo; male, CD-1, mouse, sc, 5 mg/kg): 2190 ng/mL; level at 4 h (in vivo; male, CD-1, mouse, sc, 5 mg/kg): 1640 ng/mL; level at 8 h (in vivo; male, CD-1, mouse, sc, 5 mg/kg): 1890 ng/mL; level at 12 h (in vivo; male, CD-1, mouse, sc, 5 mg/kg): 1210 ng/mL; level at 24 h (in vivo; male, CD-1, mouse, sc, 5 mg/kg): 108 ng/mL; AUC0-∞ dcor. (in vivo; iv, 1 mg/kg): 3480.0 kg·ng·h/mg/mL; Cmax dcor. (in vivo; iv, 1 mg/kg): 2970.0 kg·ng/mg/mL; AUC0-∞ dcor. (in vivo; sc, 5 mg/kg): 4944.7 kg·ng·h/mg/mL; Cmax dcor. (in vivo; sc, 5 mg/kg): 437.4 kg·ng/mg/mL
2 | CCCCCCCCCCCCCCCC(=O)NCCCC[C@@H]1NC(=O)[C@H](Cc2ccc(O)cc2)NC(=O)[C@@H]2CSSC[C@H](NC(=O)[C@H](Cc3ccc(O)cc3)NC(=O)[C@H](Cc3c[nH]cn3)NC(=O)[C@H](Cc3ccc(O)cc3)NC(=O)[C@@H]3CCCN3C(=O)[C@H]3CCCN3C(=O)[C@H](CCCCN)NC1=O)C(=O)N[C@@H](CO)C(=O)N[C@@H](C)C(=O)N1CCC[C@@H]1C(=O)N[C@@H](CCN)C(=O)N[C@@H](CCCNC(=N)N)C(=O)N[C@@H](Cc1ccc(O)cc1)C(=O)N2 [Ex. 20] (cyclo(YHYCSA[dP][Dab]RYCYK(Palmitoyl)K[dP]P); disulfide 4-11) | 83% | 24 h | 139% | 5500 ng·h/mL | 2210 ng/mL | 0.5 h | 2 h | 777 ng/mL | 1520 ng/mL | 2210 ng/mL | 1380 ng/mL | 992 ng/mL | 486 ng/mL | 13 ng/mL | 38200 ng·h/mL | 3040 ng/mL | 12 h | 2.9 h | 70 ng/mL | 342 ng/mL | level at 3 h (in vivo; male, CD-1, mouse, iv, 1 mg/kg): 638 ng/mL; level at 6 h (in vivo; male, CD-1, mouse, iv, 1 mg/kg): 234 ng/mL; level at 2 h (in vivo; male, CD-1, mouse, sc, 5 mg/kg): 868 ng/mL; level at 4 h (in vivo; male, CD-1, mouse, sc, 5 mg/kg): 1700 ng/mL; level at 6 h (in vivo; male, CD-1, mouse, sc, 5 mg/kg): 2800 ng/mL; level at 8 h (in vivo; male, CD-1, mouse, sc, 5 mg/kg): 2860 ng/mL; level at 12 h (in vivo; male, CD-1, mouse, sc, 5 mg/kg): 3040 ng/mL; level at 24 h (in vivo; male, CD-1, mouse, sc, 5 mg/kg): 179 ng/mL; AUC0-∞ dcor. (in vivo; iv, 1 mg/kg): 5504.8 kg·ng·h/mg/mL; Cmax dcor. (in vivo; iv, 1 mg/kg): 2210.0 kg·ng/mg/mL; AUC0-∞ dcor. (in vivo; sc, 5 mg/kg): 7630.8 kg·ng·h/mg/mL; Cmax dcor. (in vivo; sc, 5 mg/kg): 608.7 kg·ng/mg/mL
